For 19 molecules, Ki results are on record in US8598357B2, “Benzodioxole piperidine compounds” (Hoffmann-La Roche Inc., priority 2011, dated 2013).

As a reminder, the Ki is the equilibrium dissociation constant of an inhibitor or competing ligand from its target.

Read-outs that look alike come from different tables or passages of the source.

One experiment concerns the target 5-HT2A receptor (Homo sapiens (Human), UniProt P28223). The experiment is described as follows: Radioligand binding assay ([3H]-ketanserin) on membranes of HEK293 EBNA cells expressing human 5-HT2A receptor.
Another experiment has as its target D3 receptor (Homo sapiens (Human), UniProt P35462). The experiment is described as follows: Radioligand binding assay ([3H]-spiperone) on membranes of HEK293 EBNA cells expressing human D3 receptor.
The target in a further experiment is D2 receptor (Homo sapiens (Human), UniProt P14416). The experiment is described as follows: Radioligand binding assay ([3H]-spiperone) on membranes of HEK293 EBNA cells expressing human D2 receptor. The note with it: human receptor in HEK293 EBNA cells; 0.7 nM [3H]-spiperone.
The mark [1] stands for this setting: read-out: D3 Ki, human receptor in HEK293 EBNA cells, 0.5 nM [3H]-spiperone.
Setting [2] is: read-out: 5HT2A Ki, human receptor in HEK293 EBNA cells, 1.1 nM [3H]-ketanserin.

D2 receptor, sequence (P14416 whole entry): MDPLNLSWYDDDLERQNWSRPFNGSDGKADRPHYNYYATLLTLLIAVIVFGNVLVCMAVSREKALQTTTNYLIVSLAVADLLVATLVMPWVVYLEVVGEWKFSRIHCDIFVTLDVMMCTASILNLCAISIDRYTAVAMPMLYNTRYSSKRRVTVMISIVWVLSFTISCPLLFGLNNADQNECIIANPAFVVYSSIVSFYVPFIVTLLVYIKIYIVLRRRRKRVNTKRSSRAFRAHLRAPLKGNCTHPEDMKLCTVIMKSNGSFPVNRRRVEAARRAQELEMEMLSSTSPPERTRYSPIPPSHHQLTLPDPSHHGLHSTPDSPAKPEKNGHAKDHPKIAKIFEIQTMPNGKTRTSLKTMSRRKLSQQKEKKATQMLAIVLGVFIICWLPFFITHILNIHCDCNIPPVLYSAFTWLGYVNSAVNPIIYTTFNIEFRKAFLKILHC
D3 receptor, sequence (P35462 whole entry): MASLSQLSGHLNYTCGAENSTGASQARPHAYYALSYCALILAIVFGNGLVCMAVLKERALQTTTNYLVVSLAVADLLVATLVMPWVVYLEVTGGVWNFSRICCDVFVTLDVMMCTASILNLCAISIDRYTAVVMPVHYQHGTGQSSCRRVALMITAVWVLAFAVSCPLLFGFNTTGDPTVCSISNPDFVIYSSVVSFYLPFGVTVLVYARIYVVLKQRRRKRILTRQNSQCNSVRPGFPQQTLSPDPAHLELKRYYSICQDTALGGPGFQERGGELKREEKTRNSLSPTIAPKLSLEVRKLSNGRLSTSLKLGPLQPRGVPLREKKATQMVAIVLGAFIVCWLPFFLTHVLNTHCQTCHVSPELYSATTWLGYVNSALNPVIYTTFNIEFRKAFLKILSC
Experimental for 5-HT2A receptor: HEK293 EBNA cells were transiently transfected with expression plasmids encoding for the human D2 or D3 or for the human 5-HT2A receptor, respectively. The cells were harvested 48 h post-transfection, washed three times with cold PBS and stored at −80° C. prior to use. The pellet was suspended in cold 50 mM Tris-HCl buffer containing 10 mM EDTA (pH 7.4) and was homogenized with a Polytron (Kinematica AG, Basel, Switzerland) for 20-30 sec at 12.000 rpm. After centrifugation at 48.000×g for 30 min at 4° C., the pellet was resuspended in cold 10 mM Tris-HCl buffer containing 0.1 mM EDTA (pH 7.4), homogenized, and centrifuged as above. This pellet was further resuspended in a smaller volume of ice cold 10 mM Tris-HCl buffer containing 0.1 mM EDTA (pH 7.4) and homogenized with a Polytron for 20-30 sec at 12.000 rpm. The protein content of this homogenate was determined with the Bio-Rad (Bradford) Protein Assay (Biorad Laboratories GmbH, München, Germany) according to the instructions of the manufacturer using gamma globulin as the standard. This homogenate was stored at −80° C. in aliquots and thawed immediately prior to use.
Aliquots of membrane preparations were thawed at RT, resuspended in assay buffer (D2, D3: 50 mM Tris-HCl, 120 mM NaCl, 5 mM MgCl2, 1 mM EDTA, 5 mM KCl, 1.5 mM CaCl2, pH=7.4; 5-HT2A: 50 mM Tris-HCl, 10 mM MgCl2, 1 mM EGTA, pH=7.4), homogenized with a Polytron for 20-30 sec at 12.000 rpm and adjusted to a final concentration of approximately 7.5 μg protein/well (D2, D3) and 15 μg protein/well (5-HT2A), respectively.
The nonspecific binding was determined with equally composed reaction mixtures in the presence of 10 μM unlabelled spiperone. Per well 45 μl of Microscint 40 (Perkin Elmer, Schwerzenbach, Switzerland) was added, plates for sealed, shaken for 20 min and counted for 3 min on a Topcount Microplate Scintillation Counter (Can berra Packard SA, Ziirich, Switzerland) with quenching correction.
The CPM value for each duplicate of a concentration of competing compound was averaged (y1), then the % specific binding was calculated according to the equation (((y1−non-specific)/(total binding−non-specific))×100). Graphs were plotted with the % specific binding using XLfit, a curve fitting program that iteratively plots the data using Levenberg-Marquardt algorithm. The single site competition analysis equation used was y=A+((B−A)/(1+((x/C)D))), where y is the % specific binding, A is the minimum y, B is the maximum y, C is the IC50, x is the log 10 of the concentration of the competing compound and D is the slope of the curve (the Hill Coefficient). […] The affinity constant (K) was calculated using the Cheng-Prusoff equation Ki=(IC50/1+([L]/Kd), where [L] is the concentration of radioligand and Kd is the dissociation constant of the radioligand at the receptor as determined by the saturation isotherm.

With `O=C(N[C@H]1CC[C@H](CCN2CCC(c3cccc4c3OCO4)CC2)CC1)C1CCC1` [Example 54, Cyclobutanecarboxylic acid-trans-{4-[2-(4-benzo[1,3]dioxol-4-yl-piperidin-1-yl)-ethyl]-cyclohexyl}-amide], the values for the Ki at 5-HT2A receptor (read-out: 5HT2A Ki), at D3 receptor (setting [1]) and at D2 receptor were 0.0169 µM, 0.008 µM and 0.1 µM, respectively.
With `CC(C)(O)C(=O)N[C@H]1CC[C@H](CCN2CCC(c3cccc4c3OCO4)CC2)CC1` [Example 32, Trans-N-{4-[2-(4-Benzo[1,3]dioxol-4-yl-piperidin-1-yl)-ethyl]-cyclohexyl}-2-hydroxy-2-methyl-propionamide], the Ki was 0.00477 µM on 5-HT2A receptor (read-out: 5HT2A Ki), 0.025 µM on D3 receptor (setting [1]) and 0.407 µM at D2 receptor.
With `COC(=O)N[C@H]1CC[C@H](CCN2CCC(c3cccc4c3OCO4)CC2)CC1` [Example 18, Trans-{4-[2-(4-Benzo[1,3]dioxol-4-yl-piperidin-1-yl)-ethyl]-cyclohexyl}-carbamic acid methyl ester], the inhibition constant (Ki) at 5-HT2A receptor (read-out: 5HT2A Ki) was found to be 0.0218 µM; on D3 receptor (setting [1]) it was 0.00326 µM; on D2 receptor, 0.133 µM.
On to `CO[C@@H]1CC[C@@H](CC(=O)N[C@H]2CC[C@H](CCN3CCC(c4cccc5c4OCO5)CC3)CC2)C1` [Example 30, Trans-N-{4-[2-(4-Benzo[1,3]dioxol-4-yl-piperidin-1-yl)-ethyl]-cyclohexyl}-2-((1R,3R)-3-methoxy-cyclopentyl)-acetamide], for which the figures for the inhibition constant (Ki) at 5-HT2A receptor (setting [2]), on D3 receptor (setting [1]) and on D2 receptor were 0.0274 µM, 0.00529 µM and 0.331 µM, respectively.
In the case of `O=C(N[C@H]1CC[C@H](CCN2CCC(c3cccc4c3OCO4)CC2)CC1)C1CCCO1` (stereo partly drawn) [Example 46, Tetrahydro-furan-2-carboxylic acid-trans-{4-[2-(4-benzo[1,3]dioxol-4-yl-piperidin-1-yl)-ethyl]-cyclohexyl}-amide], the results for the Ki on 5-HT2A receptor (setting [2]), at D3 receptor (setting [1]) and on D2 receptor were 0.0144 µM, 0.0476 µM and 0.464 µM, respectively.
For `O=C(N[C@H]1CC[C@H](CCN2CCC(c3cccc4c3OCO4)CC2)CC1)c1ccc2c(c1)OCCO2` [Example 58, 2,3-Dihydro-benzo[1,4]dioxine-6-carboxylic acid-trans-N-{4-[2-(4-benzo[1,3]dioxol-4-yl-piperidin-1-yl)-ethyl]-cyclohexyl}-amide], the inhibitory constant (Ki) on 5-HT2A receptor (read-out: 5HT2A Ki) was determined as 0.0201 µM; at D3 receptor (setting [1]), 0.0037 µM; at D2 receptor, 0.345 µM.
On to `O=C(C[C@@H]1CCCOC1)N[C@H]1CC[C@H](CCN2CCC(c3cccc4c3OCO4)CC2)CC1` [Example 42, Trans-N-{4-[2-(4-Benzo[1,3]dioxol-4-yl-piperidin-1-yl)-ethyl]-cyclohexyl}-2-(S)-tetrahydro-pyran-3-yl-acetamide], for which the Ki turned out to be 0.0201 µM at 5-HT2A receptor (setting [2]), 0.0117 µM at D3 receptor (setting [1]) and 0.322 µM at D2 receptor.
As for `CCC(C)C(=O)N[C@H]1CC[C@H](CCN2CCC(c3cccc4c3OCO4)CC2)CC1` (stereo partly drawn) [Example 51, Trans-N-{4-[2-(4-Benzo[1,3]dioxol-4-yl-piperidin-1-yl)-ethyl]-cyclohexyl}-2-methyl-butyramide], the figures for the Ki at 5-HT2A receptor (read-out: 5HT2A Ki), on D3 receptor (setting [1]) and at D2 receptor were 0.025 µM, 0.0138 µM and 0.352 µM, respectively.
In the case of `CC(C)C(=O)N[C@H]1CC[C@H](CCN2CCC(c3cccc4c3OCO4)CC2)CC1` [Example 23, Trans-N-{4-[2-(4-Benzo[1,3]dioxol-4-yl-piperidin-1-yl)-ethyl]-cyclohexyl}-isobutyramide], the results for the inhibition constant Ki on 5-HT2A receptor (read-out: 5HT2A Ki), at D3 receptor (setting [1]) and on D2 receptor were 0.017 µM, 0.00826 µM and 0.397 µM, respectively.
On to `O=C(CCC(F)(F)F)N[C@H]1CC[C@H](CCN2CCC(c3cccc4c3OCO4)CC2)CC1` [Example 11, Trans-N-{4-[2-(4-Benzo[1,3]dioxol-4-yl-piperidin-1-yl)-ethyl]-cyclohexyl}-4,4,4-trifluoro-butyramide], for which the Ki on 5-HT2A receptor (setting [2]) is 0.032 µM; at D3 receptor (setting [1]), 0.00774 µM; on D2 receptor it was 0.41 µM.
On the same counts, the results for `CN(C)C(=O)N[C@H]1CC[C@H](CCN2CCC(c3cccc4c3OCO4)CC2)CC1` [Example 75, N-Trans-3-{4-[2-(4-Benzo[1,3]dioxol-4-yl-piperidin-1-yl)-ethyl]cyclohexyl}-1,1-dimethyl-urea] are 0.0456 µM, 0.0329 µM and 0.0527 µM.
Turning to `O=C(C[C@@H]1CCCO1)N[C@H]1CC[C@H](CCN2CCC(c3cccc4c3OCO4)CC2)CC1` [Example 17, Trans-N-{4-[2-(4-Benzo[1,3]dioxol-4-yl-piperidin-1-yl)-ethyl]-cyclohexyl}-2-(S)-tetrahydro-furan-2-yl-acetamide], the Ki came out at 0.0338 µM at 5-HT2A receptor (read-out: 5HT2A Ki), 0.00641 µM on D3 receptor (setting [1]) and 0.531 µM on D2 receptor.
As for `O=C(CC1CCCCO1)N[C@H]1CC[C@H](CCN2CCC(c3cccc4c3OCO4)CC2)CC1` (stereo partly drawn) [Example 22, Trans-N-{4-[2-(4-Benzo[1,3]dioxol-4-yl-piperidin-1-yl)-ethyl]-cyclohexyl}-2-(tetrahydro-pyran-2-yl)-acetamide], the inhibitory constant (Ki) on 5-HT2A receptor (read-out: 5HT2A Ki) was 0.0156 µM; on D3 receptor (setting [1]), 0.00935 µM; on D2 receptor it was 0.523 µM.
The corresponding values for `O=C(N[C@H]1CC[C@H](CCN2CCC(c3cccc4c3OCO4)CC2)CC1)[C@@H](O)C(F)(F)F` [Example 39, Trans-(R)—N-{4-[2-(4-Benzo[1,3]dioxol-4-yl-piperidin-1-yl)-ethyl]-cyclohexyl}-3,3,3-trifluoro-2-hydroxy-propionamide] are 0.0194 µM, 0.0199 µM and 0.284 µM.
As for `O=C(N[C@H]1CC[C@H](CCN2CCC(c3cccc4c3OCO4)CC2)CC1)c1ccc(N2CCOCC2)cc1` [Example 56, Trans-N-{-4-[2-(4-Benzo[1,3]dioxol-4-yl-piperidin-1-yl)-ethyl]-cyclohexyl}-4-morpholin-4-yl-benzamide], the Ki on 5-HT2A receptor (setting [2]) was 0.0185 µM; on D3 receptor (setting [1]), 0.0101 µM; on D2 receptor it was 0.593 µM.
On to `O=C(CC1CC1)N[C@H]1CC[C@H](CCN2CCC(c3cccc4c3OCO4)CC2)CC1` [Example 8, Trans-N-{4-[2-(4-Benzo[1,3]dioxol-4-yl-piperidin-1-yl)-ethyl]-cyclohexyl}-2-cyclopropyl-acetamide], for which the inhibitory constant (Ki) at 5-HT2A receptor (setting [2]) worked out at 0.0176 µM; at D3 receptor (setting [1]), 0.00254 µM; at D2 receptor, 0.303 µM.
For `O=C(C[C@@H]1COCCO1)N[C@H]1CC[C@H](CCN2CCC(c3cccc4c3OCO4)CC2)CC1` (single isomer, unassigned) [Example 5, Trans-N-{4-[2-(4-Benzo[1,3]dioxol-4-yl-piperidin-1-yl)-ethyl]-cyclohexyl}-2-(R) or (S)-[1,4]dioxan-2-yl-acetamide], the results for the Ki on 5-HT2A receptor and on D3 receptor were 0.017 µM and 0.0095 µM, respectively.
With `O=C(CC1COCCO1)N[C@H]1CC[C@H](CCN2CCC(c3cccc4c3OCO4)CC2)CC1` (stereo partly drawn) [Example 3, Trans-N-{4-[2-(4-Benzo[1,3]dioxol-4-yl-piperidin-1-yl)-ethyl]-cyclohexyl}-2-[1,4]dioxan-2-yl-acetamide], the Ki is 0.0139 µM at 5-HT2A receptor (read-out: 5HT2A Ki) and 0.00888 µM at D3 receptor (setting [1]).
`O=C(C[C@H]1COCCO1)N[C@H]1CC[C@H](CCN2CCC(c3cccc4c3OCO4)CC2)CC1` (single isomer, unassigned) [Example 4, Trans-N-{4-[2-(4-Benzo[1,3]dioxol-4-yl-piperidin-1-yl)-ethyl]-cyclohexyl}-2-(S) or (R)-[1,4]dioxan-2-yl-acetamide]: the values for the Ki at 5-HT2A receptor and on D3 receptor were 0.0119 µM and 0.00979 µM, respectively.
